From patent US20110160193A1, “New Benzothiazinone Derivatives and Their Use as Antibacterial Agents” (Leibniz Institute for Natural Product Research and …, priority 2006, published 2011) come the findings set out here.

SMILES strings stand for the structures. Converted amounts (≈) assume the structure as drawn. Like-named read-outs stand apart in the source and are kept apart here.

Data set [1] relates to Mycobacterium tuberculosis H37Rv. Briefly: Murine TB model, hematogenously disseminated tuberculosis. The class given is in vivo, BALB/c line mice. The settings on record: 10 animals per group.
Data set [2] can be described thus: Toxicity after per os administration. Particulars: mice. The class given is in vivo. The procedure: The compound of the invention (especially compound no 2=example 1 in the embodiments), is non toxic after per os administration of doses ranging up to 2000 mg/kg was the compound was well endured by animals in the first and 24 next coming hours after introducing. […] LD50 for compound 2 is >2000 mg/kg.

A further data set concerns M. vaccae IMET 1010670. Briefly: MIC by micro broth dilution method in Mueller-Hinton broth (NCCLS). The class given is cell-based. A general note: Broth dilution looks for growth in wells or tubes with falling amounts of substance.
For a further data set, the system named is M. fortuitum B. Briefly: MIC by micro broth dilution method in Mueller-Hinton broth (NCCLS). It counts as cell-based.
The test system of data set [3] is Mycobacterium smegmatis SG 987. Described as above. The class given is cell-based.
Data set [4] concerns Mycobacterium tuberculosis clinical isolate 6341. As to the kind of experiment: MIC and MBC in liquid Shkolnikova medium / solid Lowenstein-Jensen medium. It counts as cell-based.
[5] abbreviates: Mycolicibacterium vaccae, IMET1010670.
[6] abbreviates: Mycolicibacterium smegmatis, SG987.

For orientation: LD50 means the dose expected to kill half of the subjects tested. Read a high LD50 as lower toxicity. Take `CC1COC2(CCN(c3nc(=O)c4cc(C(F)(F)F)cc([N+](=O)[O-])c4s3)CC2)O1` (stereo not drawn) [Compound 2, 2-(2-methyl-1,4-dioxa-8-azaspiro[4.5]dec-8-yl)-8-nitro-6-(trifluoro-methyl)-1,3-benzothiazin-4-one]: the Survival of animals in data set [1] (day of treatment 1, 12 mg/kg) stood at 10; in data set [1] (day of treatment 1, 25 mg/kg), 10; in data set [1] (day of treatment 2, 12 mg/kg), 10; in data set [1] (day of treatment 2, 25 mg/kg), 10; in data set [1] (day of treatment 3, 12 mg/kg) it was 10; in data set [1] (day of treatment 3, 25 mg/kg), 10. Further, the Survival of animals in data set [1] (day of treatment 4, 12 mg/kg) was 10; in data set [1] (day of treatment 4, 25 mg/kg), 10; in data set [1] (day of treatment 5, 12 mg/kg), 10; in data set [1] (day of treatment 5, 25 mg/kg), 10; in data set [1] (day of treatment 6, 12 mg/kg) it was 10; in data set [1] (day of treatment 6, 25 mg/kg), 10. Also, the Survival of animals in data set [1] (day of treatment 7, 12 mg/kg) is given as 10; in data set [1] (day of treatment 7, 25 mg/kg), 10; in data set [1] (day of treatment 8, 12 mg/kg) it was 10; in data set [1] (day of treatment 8, 25 mg/kg) it was 10; in data set [1] (day of treatment 9, 12 mg/kg) it was 10; in data set [1] (day of treatment 9, 25 mg/kg), 10. Moreover, the Survival of animals in data set [1] (day of treatment 10, 12 mg/kg) was 10; in data set [1] (day of treatment 10, 25 mg/kg) it was 10; in data set [1] (day of treatment 11, 12 mg/kg), 10; in data set [1] (day of treatment 11, 25 mg/kg), 10; in data set [1] (day of treatment 12, 12 mg/kg), 10; in data set [1] (day of treatment 12, 25 mg/kg), 10. Further, the Survival of animals was 10 in data set [1] (day of treatment 13, 12 mg/kg); 10 in data set [1] (day of treatment 13, 25 mg/kg); 10 in data set [1] (day of treatment 14, 12 mg/kg); 10 in data set [1] (day of treatment 14, 25 mg/kg); 10 in data set [1] (day of treatment 15, 12 mg/kg); 10 in data set [1] (day of treatment 15, 25 mg/kg). Moreover, the Survival of animals in data set [1] (day of treatment 16, 12 mg/kg) is listed as 10; in data set [1] (day of treatment 16, 25 mg/kg) it was 10; in data set [1] (day of treatment 17, 12 mg/kg) it was 10; in data set [1] (day of treatment 17, 25 mg/kg), 10; in data set [1] (day of treatment 18, 12 mg/kg), 10; in data set [1] (day of treatment 18, 25 mg/kg) it was 10. The Survival of animals was determined as 10 in data set [1] (day of treatment 19, 12 mg/kg); 10 in data set [1] (day of treatment 19, 25 mg/kg); 10 in data set [1] (day of treatment 20, 12 mg/kg); 10 in data set [1] (day of treatment 20, 25 mg/kg); 10 in data set [1] (day of treatment 21, 12 mg/kg); 10 in data set [1] (day of treatment 21, 25 mg/kg). For the same molecule, the Survival of animals is 10 in data set [1] (day of treatment 22, 12 mg/kg); 10 in data set [1] (day of treatment 22, 25 mg/kg); 10 in data set [1] (day of treatment 23, 12 mg/kg); 10 in data set [1] (day of treatment 23, 25 mg/kg); 10 in data set [1] (day of treatment 24, 12 mg/kg); 10 in data set [1] (day of treatment 24, 25 mg/kg). Further, the Survival of animals in data set [1] (day of treatment 25, 12 mg/kg) amounted to 10; in data set [1] (day of treatment 25, 25 mg/kg), 10; in data set [1] (day of treatment 26, 12 mg/kg) it was 10; in data set [1] (day of treatment 26, 25 mg/kg) it was 10; in data set [1] (day of treatment 27, 12 mg/kg), 100%; in data set [1] (day of treatment 27, 25 mg/kg), 100%. Besides, in data set [2] (doses ranging up to 2000 mg/kg, 7 days of investigations), the “Toxicity after per os administration” value is “non toxic”. In data set [2] (per os), this molecule returned an LD50 above 2000 mg/kg.

The MIC is the lowest concentration that inhibits growth of the organism. As a reminder, the melting point is the temperature, or range, at which the solid turns liquid. Consider `O=c1nc(N2CCC3(CC2)OCCO3)sc2c([N+](=O)[O-])cc([N+](=O)[O-])cc12` [Compound 3, 2-(1,4-dioxa-8-azaspiro[4.5]dec-8-yl)-6,8-dinitro-1,3-benzothiazin-4-one], for which the melting point fell in the range of 271 to 273 °C. Besides, in the data set with M. vaccae IMET 1010670 (setting [5]), the MIC was 0.0015 µg/mL (≈ 0.0038 µM). In the data set on M. fortuitum B (Mycolicibacterium fortuitum), the MIC was 0.006 µg/mL (≈ 0.0152 µM). Besides, inhibition of growth in data set [3] (setting [6]) (MIC) required 0.2 µg/mL (≈ 0.507 µM).

`CC1COC2(CCN(c3nc(=O)c4cc([N+](=O)[O-])cc([N+](=O)[O-])c4s3)CC2)O1` (stereo not drawn) [Compound 4, 2-(2-methyl-1,4-dioxa-8-azaspiro[4.5]decyl)-6,8-dinitro-1,3-benzothiazin-4-one]: the MIC against M. vaccae IMET 1010670 (M. vaccae) was 0.003 µg/mL (≈ 0.00735 µM); in the data set with M. fortuitum B (M. fortuitum), 0.003 µg/mL (≈ 0.00735 µM); in data set [3] (M. smegmatis), 0.2 µg/mL (≈ 0.49 µM).

`CC1OC2(CCN(c3nc(=O)c4cc(C(F)(F)F)cc([N+](=O)[O-])c4s3)CC2)OC1C` (stereo not drawn) [Compound 5, 2-(2,3-dimethyl-1,4-dioxa-8-azaspiro[4.5]dec-8-yl)-8-nitro-6-(trifluoromethyl)-1,3-benzothiazin-4-one]: in data set [4], the MIC came to 0.39 µg/mL (≈ 0.876 µM).

Take `CCOC1(OCC)CCN(c2nc(=O)c3cc([N+](=O)[O-])cc([N+](=O)[O-])c3s2)CC1` [Compound 6, 2-(4,4-diethoxypiperidin-1-yl)-6,8-dinitro-1,3-benzothiazin-4-one]: the melting point lay in the range of 179 to 181 °C.

`O=c1nc(N2CCC3(CC2)OCCCCO3)sc2c([N+](=O)[O-])cc([N+](=O)[O-])cc12` [Compound 7, 2-(7,12-dioxa-3-azaspiro[5.6]dodec-3-yl)-6,8-dinitro-1,3-benzothiazin-4-one] had a melting point of 193 to 195 °C. Moreover, inhibition of growth in the data set with M. vaccae IMET 1010670 (setting [5]) (MIC) required 0.003 µg/mL (≈ 0.0071 µM). In addition, in the data set with M. fortuitum B (Mycolicibacterium fortuitum), the lowest concentration to inhibit growth (MIC) was 0.003 µg/mL (≈ 0.0071 µM). Moreover, in data set [3] (setting [6]), the MIC is 0.78 µg/mL (≈ 1.85 µM).

`Cc1c([N+](=O)[O-])cc2c(=O)nc(N3CCC4(CC3)OCCO4)sc2c1[N+](=O)[O-]` [Compound 8, 2-(1,4-dioxa-8-azaspiro[4.5]dec-8-yl)-7-methyl-6,8-dinitro-1,3-benzothiazin-4-one] gave a melting point of 207 to 210 °C. Also, the MIC against M. vaccae IMET 1010670 (setting [5]) stood at 0.025 µg/mL (≈ 0.0612 µM). In the data set on M. fortuitum B (Mycolicibacterium fortuitum), this molecule returned an MIC of 0.025 µg/mL (≈ 0.0612 µM). In addition, in data set [3] (setting [6]), inhibition of growth (MIC) required 0.4 µg/mL (≈ 0.979 µM).

`N#Cc1cc([N+](=O)[O-])c2sc(N3CCC4(CC3)OCCO4)nc(=O)c2c1` [Compound 9, 2-(1,4-dioxa-8-azaspiro[4.5]dec-8-yl)-8-nitro-4-oxo-1,3-benzothiazine-6-carbonitrile] showed a melting point of 217 to 220 °C.

The molecule `N#Cc1cc([N+](=O)[O-])c2sc(N3CCC4(CC3)OCCCO4)nc(=O)c2c1` [Compound 11, 2-(1,5-dioxa-9-azaspiro[5.5]undec-9-yl)-8-nitro-4-oxo-1,3-benzothiazine-6-carbonitrile] showed a melting point of 230 to 232 °C. The MIC in the data set with M. vaccae IMET 1010670 (Mycolicibacterium vaccae, IMET1010670, M. vaccae, read-out: MIC) was determined as 0.00625 µg/mL (≈ 0.0161 µM). Further, the MIC with M. fortuitum B (Mycolicibacterium fortuitum, M. fortuitum, read-out: MIC) came out at 0.025 µg/mL (≈ 0.0644 µM). In data set [3] (Mycolicibacterium smegmatis, SG987, M. smegmatis, read-out: MIC), the MIC was found to be 0.05 µg/mL (≈ 0.129 µM).

For the molecule `NNC(=O)c1ccncc1` [Isoniazid, reference compound], the Survival of animals in data set [1] (day of treatment 1, 25 mg/kg) turned out to be 10; in data set [1] (day of treatment 2, 25 mg/kg), 10; in data set [1] (day of treatment 3, 25 mg/kg), 10; in data set [1] (day of treatment 4, 25 mg/kg) it was 10; in data set [1] (day of treatment 5, 25 mg/kg), 10; in data set [1] (day of treatment 6, 25 mg/kg), 10. Moreover, the Survival of animals in data set [1] (day of treatment 7, 25 mg/kg) is 10; in data set [1] (day of treatment 8, 25 mg/kg) it was 10; in data set [1] (day of treatment 9, 25 mg/kg), 10; in data set [1] (day of treatment 10, 25 mg/kg), 10; in data set [1] (day of treatment 11, 25 mg/kg), 10; in data set [1] (day of treatment 12, 25 mg/kg), 10. In addition, the Survival of animals is 10 in data set [1] (day of treatment 13, 25 mg/kg); 10 in data set [1] (day of treatment 14, 25 mg/kg); 10 in data set [1] (day of treatment 15, 25 mg/kg); 10 in data set [1] (day of treatment 16, 25 mg/kg); 10 in data set [1] (day of treatment 17, 25 mg/kg); 10 in data set [1] (day of treatment 18, 25 mg/kg). The Survival of animals in data set [1] (day of treatment 19, 25 mg/kg) amounted to 10; in data set [1] (day of treatment 20, 25 mg/kg), 10; in data set [1] (day of treatment 21, 25 mg/kg), 10; in data set [1] (day of treatment 22, 25 mg/kg) it was 10; in data set [1] (day of treatment 23, 25 mg/kg), 10; in data set [1] (day of treatment 24, 25 mg/kg), 10. The Survival of animals in data set [1] (day of treatment 25, 25 mg/kg) came out at 10; in data set [1] (day of treatment 26, 25 mg/kg), 10; in data set [1] (day of treatment 27, 25 mg/kg), 100%.
